From US7645752B2, “Sulfonyl substituted 1H-indoles as ligands for the 5-hydroxytryptamine receptors” (Wyeth LLC, priority 2006, dated 2010)
Where a name gives a salt, the structure may show the parent alone. Read-outs that look alike come from different tables or passages of the source.

Experiments:
human 5-HT2A receptor = human 5-HT2A receptor (Homo sapiens, UniProt P28223); test: 5-HT2A FLIPR assay, antagonism of DOI calcium response in CHO cells; details: for inhibition at 1 µM: CHO, read-out: 5-HT2A % Inhibition @ 1 uM
Chain of human 5-HT2A receptor (P28223 whole entry): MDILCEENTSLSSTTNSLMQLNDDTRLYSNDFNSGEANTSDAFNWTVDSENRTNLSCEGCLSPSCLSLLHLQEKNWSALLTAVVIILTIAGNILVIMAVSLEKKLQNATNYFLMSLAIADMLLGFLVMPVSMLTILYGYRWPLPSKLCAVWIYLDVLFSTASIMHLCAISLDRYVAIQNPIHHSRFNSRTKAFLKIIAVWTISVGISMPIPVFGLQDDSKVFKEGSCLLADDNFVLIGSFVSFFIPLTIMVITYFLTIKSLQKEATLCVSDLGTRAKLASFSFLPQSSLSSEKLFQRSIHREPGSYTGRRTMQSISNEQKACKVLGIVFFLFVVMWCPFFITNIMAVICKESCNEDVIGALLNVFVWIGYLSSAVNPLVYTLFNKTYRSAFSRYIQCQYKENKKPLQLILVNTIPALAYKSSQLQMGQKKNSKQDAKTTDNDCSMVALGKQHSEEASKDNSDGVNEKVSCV

human hNET = molecular target: T1, human hNET (Homo sapiens, UniProt P23975); test: Norepinephrine (NE) uptake assay in MDCK-Net6 cells; type: cell-based; details: for inhibition at 1 µM: MDCK-Net6; for IC50: [3H]NE uptake, MDCK-Net6 cells
T1 construct: expressed in transfected cells
T1 sequence (P23975 whole entry): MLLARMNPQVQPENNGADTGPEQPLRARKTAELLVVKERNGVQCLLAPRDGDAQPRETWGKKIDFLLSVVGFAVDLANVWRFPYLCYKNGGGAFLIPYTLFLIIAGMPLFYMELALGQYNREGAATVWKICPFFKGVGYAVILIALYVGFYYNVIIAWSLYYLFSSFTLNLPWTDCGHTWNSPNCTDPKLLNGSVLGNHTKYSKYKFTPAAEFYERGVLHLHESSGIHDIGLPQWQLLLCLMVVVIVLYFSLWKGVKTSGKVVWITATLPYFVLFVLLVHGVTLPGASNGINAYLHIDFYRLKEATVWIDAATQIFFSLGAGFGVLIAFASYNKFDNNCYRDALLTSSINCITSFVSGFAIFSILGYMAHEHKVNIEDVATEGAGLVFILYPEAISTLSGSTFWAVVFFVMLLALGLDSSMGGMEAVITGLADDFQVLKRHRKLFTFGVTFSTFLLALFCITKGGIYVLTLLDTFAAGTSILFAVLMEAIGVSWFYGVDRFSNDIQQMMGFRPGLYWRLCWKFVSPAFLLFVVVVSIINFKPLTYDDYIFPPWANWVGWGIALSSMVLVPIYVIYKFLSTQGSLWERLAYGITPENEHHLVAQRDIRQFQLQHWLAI

[1] = molecular target: T2, human cloned 5-HT6 receptors (Homo sapiens, UniProt P50406); test: 5-HT6 binding affinity, [3H]-LSD displacement on membranes of Hela cells; details: for inhibition at 1 µM: 5-HT6 binding, at 1 micromole, read-out: % inhibition at 1 micromole
T2 construct: expressed in transfected cells; host or cells: HeLa cells
T2 sequence (P50406 whole entry): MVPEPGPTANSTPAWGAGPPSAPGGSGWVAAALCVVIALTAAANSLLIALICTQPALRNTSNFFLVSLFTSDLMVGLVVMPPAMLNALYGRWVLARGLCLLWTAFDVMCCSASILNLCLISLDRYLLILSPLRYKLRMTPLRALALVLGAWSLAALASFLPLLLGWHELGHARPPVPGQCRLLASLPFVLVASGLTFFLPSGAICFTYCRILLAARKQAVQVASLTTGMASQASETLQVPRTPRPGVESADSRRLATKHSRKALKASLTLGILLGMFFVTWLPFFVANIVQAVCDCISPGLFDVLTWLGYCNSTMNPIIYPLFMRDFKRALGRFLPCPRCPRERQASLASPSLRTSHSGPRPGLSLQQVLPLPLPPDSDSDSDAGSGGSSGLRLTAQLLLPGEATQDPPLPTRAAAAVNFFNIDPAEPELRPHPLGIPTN
Description: The affinity of test compounds for the 5-HT6 receptor is evaluated in the following manner. Cultured Hela cells expressing human cloned 5-HT6 receptors are harvested and centrifuged at low speed (1,000×g) for 10.0 min to remove the culture media. The harvested cells are suspended in half volume of fresh physiological phosphate buffered saline solution and recentrifuged at the same speed. This operation is repeated. The collected cells are then homogenized in ten volumes of 50 mM Tris.HCl (pH 7.4) and 0.5 mM EDTA. The homogenate is centrifuged at 40,000×g for 30.0 min and the precipitate is collected. The obtained pellet is resuspended in 10 volumes of Tris.HCl buffer and recentrifuged at the same speed. The final pellet is suspended in a small volume of Tris.HCl buffer and the tissue protein content is determined in aliquots of 10-25 microliter volumes. […] The volume of the suspended cell membranes is adjusted to give a tissue protein concentration of 1.0 mg/mL of suspension. The prepared membrane suspension (10 times concentrated) is aliquoted in 1.0 mL volumes and stored at −70° C. until used in subsequent binding experiments.
Binding experiments are performed in a 96 well microtiter plate format in a total volume of 200 microliters. […] The test compounds are added in 20.0 microliter volume.
The bound complex caught on the filter disk is allowed to air dry and the radioactivity is measured in a Packard TopCount® equipped with six photomultiplier detectors, after the addition of 40.0 microliter Microscint®-20 scintillant to each shallow well.
Binding in the presence of varying concentrations of test compound is expressed as a percentage of specific binding in the absence of test compound. The results are plotted as log % bound versus log concentration of the test compound.

[2] = Table 1, [3H]-LSD 3.0 nM, Hela cell membranes, read-out: Ki (nM) @ 5-HT6 receptor
[3] = read-out: 5-HT2A IC50, antagonism of 3 nM DOI, CHO cells, FLIPR

| SMILES | melting point | Ki [1, 2] | Ki ([1]; Table 2, read-out: 5-HT6 Ki) | IC50 (human hNET) | IC50 (human 5-HT2A receptor) | further results |
| --- | --- | --- | --- | --- | --- | --- |
| CC(C)(C)CNCCc1cccc2[nH]cc(S(=O)(=O)c3ccccc3)c12 (as salt: hydrochloride) [Example 49, N-(2,2-dimethylpropyl)-N-{2-[3-(phenylsulfonyl)-1H-indol-4-yl]ethyl}amine] | 135 °C | – | – | – | – | – |
| O=S(=O)(c1ccccc1)c1c[nH]c2cccc(CCNCC3CCCO3)c12 (stereo not shown) (as salt: hydrochloride) [Example 51, N-{2-[3-(phenylsulfonyl)-1H-indol-4-yl]ethyl}-N-((tetrahydrofur-2-yl)methyl)amine] | 110 to 115 °C | – | – | – | – | – |
| NCCc1cccc2[nH]cc(S(=O)(=O)c3ccccc3)c12 (as salt: hydrochloride) [Example 61, {2-[3-(phenylsulfonyl)-1H-indol-4-yl]ethyl}amine] | 130 to 134 °C | – | – | – | – | – |
| NCCc1cccc2[nH]cc(S(=O)(=O)c3cccc(F)c3)c12 (as salt: hydrochloride) [Example 85, {2-[3-(3-fluorophenylsulfonyl)-1H-indol-4-yl]ethyl}amine] | 122 to 125 °C | – | – | – | – | – |
| CN(C)CCc1ccc2c(S(=O)(=O)c3ccccc3)c[nH]c2c1 (as salt: hydrochloride) [Example 86, N,N-dimethyl-N-{2-[3-(phenylsulfonyl)-1H-indol-6-yl]ethyl}amine] | 118 to 120 °C | – | – | – | – | – |
| NCCc1ccc2c(S(=O)(=O)c3ccccc3)c[nH]c2c1 (as salt: hydrochloride) [Example 109, {2-[3-(phenylsulfonyl)-1H-indol-6-yl]ethyl}amine] | 178 °C | – | – | – | – | – |
| CC1CCC[C@H](C)N1CCc1cccc2[nH]cc(S(=O)(=O)c3ccccc3)c12 (stereo in doubt) [Example 52, 4-{2-[(2R*,6S)-2,6-dimethylpiperidin-1-yl]ethyl}-3-(phenylsulfonyl)-1H-indole] | – | – | – | – | – | inhibition at 1 µM (human 5-HT2A receptor): 16%; inhibition at 1 µM (human hNET): 32% |
| CNCCc1ccc2[nH]cc(S(=O)(=O)c3ccccc3)c2c1 [Example 14, N-methyl-N-{2-[3-(phenylsulfonyl)-1H-indol-5-yl]ethyl}amine] | 151 to 154 °C | 5.2 nM | – | – | – | – |
| CNCCc1ccc2[nH]c(C)c(S(=O)(=O)c3ccccc3)c2c1 [Example 15, N-methyl-N-{2-[2-methyl-3-(phenylsulfonyl)-1H-indol-5-yl]ethyl}amine] | 213 to 215 °C | – | – | – | – | Ki [1]: 44 nM |
| CCc1[nH]c2ccc(CCNC)cc2c1S(=O)(=O)c1ccccc1 [Example 16, N-{2-[2-ethyl-3-(phenylsulfonyl)-1H-indol-5-yl]ethyl}-N-methylamine] | 179 to 182 °C | – | – | – | – | Ki [1]: 29 nM |
| CNCCc1ccc2[nH]c(-c3ccccc3)c(S(=O)(=O)c3ccccc3)c2c1 [Example 17, N-methyl-N-{2-[2-phenyl-3-(phenylsulfonyl)-1H-indol-5-yl]ethyl}amine] | 180 to 185 °C | 355 nM | – | – | – | – |
| CN(C)CCc1cccc2[nH]cc(S(=O)(=O)c3ccccc3)c12 [Example 31, N,N-dimethyl-N-{2-[3-(phenylsulfonyl)-1H-indol-4-yl]ethyl}amine] | – | 142 nM | 142 nM | 80 nM | – | IC50 (human 5-HT2A receptor; [3]): 459 nM; inhibition at 1 µM ([1]; Table 1): 75% |
| CNCCc1cccc2[nH]cc(S(=O)(=O)c3ccccc3)c12 [Example 32, N-methyl-N-{2-[3-(phenylsulfonyl)-1H-indol-4-yl]ethyl}amine] | – | 143 nM | 143 nM | – | – | IC50 (human 5-HT2A receptor; [3]): 1100 nM |
| CCNCCc1cccc2[nH]cc(S(=O)(=O)c3ccccc3)c12 [Example 33, N-ethyl-N-{2-[3-(phenylsulfonyl)-1H-indol-4-yl]ethyl}amine] | – | 207 nM | 207 nM | – | 1100 nM | – |
| CCCNCCc1cccc2[nH]cc(S(=O)(=O)c3ccccc3)c12 [Example 34, N-{2-[3-(phenylsulfonyl)-1H-indol-4-yl]ethyl}-N-propylamine] | – | 216 nM | 216 nM | – | – | IC50 (human 5-HT2A receptor; [3]): 1080 nM |
| CC(C)NCCc1cccc2[nH]cc(S(=O)(=O)c3ccccc3)c12 [Example 35, N-{2-[3-(phenylsulfonyl)-1H-indol-4-yl]ethyl}propan-2-amine] | – | 194 nM | 194 nM | 51 nM | – | IC50 (human 5-HT2A receptor; [3]): 645 nM |
| O=S(=O)(c1ccccc1)c1c[nH]c2cccc(CCNC3CC3)c12 [Example 36, N-{2-[3-(phenylsulfonyl)-1H-indol-4-yl]ethyl}cyclopropanamine] | – | 170 nM | 170 nM | 371 nM | 458 nM | – |

| SMILES | melting point | Ki [1, 2] | Ki ([1]; Table 2, read-out: 5-HT6 Ki) | IC50 (human hNET) | IC50 (human 5-HT2A receptor) | further results |
| --- | --- | --- | --- | --- | --- | --- |
| O=S(=O)(c1ccccc1)c1c[nH]c2cccc(CCNC3CCC3)c12 [Example 37, N-{2-[3-(phenylsulfonyl)-1H-indol-4-yl]ethyl}cyclobutanamine] | – | 47 nM | 47 nM | 99 nM | 600 nM | – |
| O=S(=O)(c1ccccc1)c1c[nH]c2cccc(CCN3CCCC3)c12 [Example 43, 3-(phenylsulfonyl)-4-(2-pyrrolidin-1-ylethyl)-1H-indole] | – | 73 nM | 73 nM | – | 197 nM | – |
| O=S(=O)(c1ccccc1)c1c[nH]c2cccc(CCN3CCOCC3)c12 [Example 45, 4-(2-morpholin-4-ylethyl)-3-(phenylsulfonyl)-1H-indole] | – | – | 767 nM | – | – | inhibition at 1 µM ([1]; Table 1): 59%; inhibition at 1 µM (human hNET): 28% |
| CC(C)(C)CNCCc1cccc2[nH]cc(S(=O)(=O)c3ccccc3)c12 [Example 49, N-(2,2-dimethylpropyl)-N-{2-[3-(phenylsulfonyl)-1H-indol-4-yl]ethyl}amine] | – | – | 642 nM | – | – | inhibition at 1 µM ([1]; Table 1): 63%; inhibition at 1 µM (human hNET): 37% |
| CN(C)CCCNCCc1cccc2[nH]cc(S(=O)(=O)c3ccccc3)c12 [Example 50, N,N-dimethyl-N′-{2-[3-(phenylsulfonyl)-1H-indol-4-yl]ethyl}propane-1,3-diamine] | – | 91.5 nM | 92 nM | – | – | inhibition at 1 µM (human hNET): 28% |
| CC(C)N(C)CCc1cccc2[nH]cc(S(=O)(=O)c3ccccc3)c12 [Example 53, N-methyl-N-{2-[3-(phenylsulfonyl)-1H-indol-4-yl]ethyl}propan-2-amine] | – | – | – | 126 nM | 628 nM | – |
| CCN(CCc1cccc2[nH]cc(S(=O)(=O)c3ccccc3)c12)C(C)C [Example 54, N-ethyl-N-{2-[3-(phenylsulfonyl)-1H-indol-4-yl]ethyl}propan-2-amine] | – | – | – | 485 nM | 197 nM | – |
| CC1CCCN1CCc1cccc2[nH]cc(S(=O)(=O)c3ccccc3)c12 (stereo not shown) [Example 55, 4-[2-(2-methylpyrrolidin-1-yl)ethyl]-3-(phenylsulfonyl)-1H-indole] | – | – | – | 121 nM | 114 nM | – |
| CC1CCCCN1CCc1cccc2[nH]cc(S(=O)(=O)c3ccccc3)c12 (stereo not shown) [Example 56, 4-[2-(2-methylpiperidin-1-yl)ethyl]-3-(phenylsulfonyl)-1H-indole] | – | – | – | – | 73 nM | – |
| CC1CCCN(CCc2cccc3[nH]cc(S(=O)(=O)c4ccccc4)c23)C1 (stereo not shown) [Example 57, 4-[2-(3-methylpiperidin-1-yl)ethyl]-3-(phenylsulfonyl)-1H-indole] | – | – | – | – | 72 nM | – |
| O=S(=O)(c1ccccc1)c1c[nH]c2cccc(CCN3CCCCCC3)c12 [Example 58, 4-(2-azepan-1-ylethyl)-3-(phenylsulfonyl)-1H-indole] | – | – | – | – | 90 nM | – |
| CN1CCN(CCc2cccc3[nH]cc(S(=O)(=O)c4ccccc4)c23)CC1 [Example 59, 4-[2-(4-methylpiperazin-1-yl)ethyl]-3-(phenylsulfonyl)-1H-indole] | – | – | – | 1300 nM | – | inhibition at 1 µM (human 5-HT2A receptor): 13% |
| O=S(=O)(c1ccccc1)c1c[nH]c2cccc(CCN3CCNCC3)c12 [Example 60, 3-(phenylsulfonyl)-4-(2-piperazin-1-ylethyl)-1H-indole] | – | – | – | 573 nM | – | inhibition at 1 µM (human 5-HT2A receptor): 24% |
| CC(C)NCCCc1cccc2[nH]cc(S(=O)(=O)c3ccccc3)c12 [Example 110, N-isopropyl-3-[3-(phenylsulfonyl)-1H-indol-4-yl]propan-1-amine] | – | – | – | 11 nM | – | IC50 (human 5-HT2A receptor; [3]): 5980 nM |
| O=S(=O)(c1ccccc1)c1c[nH]c2cccc(CCCN3CCCCC3)c12 [Example 111, 3-(phenylsulfonyl)-4-(3-piperidin-1-ylpropyl)-1H-indole] | – | – | – | 932 nM | – | IC50 (human 5-HT2A receptor; [3]): 7970 nM |
| CCN(C)CCCc1cccc2[nH]cc(S(=O)(=O)c3ccccc3)c12 [Example 112, N-ethyl-N-methyl-3-[3-(phenylsulfonyl)-1H-indol-4-yl]propan-1-amine] | – | – | – | 28 nM | – | IC50 (human 5-HT2A receptor; [3]): 477 nM |
